Bridge positions count the residues as written; N and C are the ends. Cy5∗∗ = not defined here
Tests used:
mouse cMet/Fc chimera = molecular target: T1, mouse cMet/Fc chimera (Mus musculus, UniProt P16056); assay: In vitro fluorescence polarisation assay, mouse cMet; type: binding; conditions: dye-labelled peptide 20 nM; mouse cMet/Fc chimera 0-150 nM (tested range)
T1 construct: Fc (immunoglobulin Fc fusion partner); purchased R&D Systems
Protocol: The principle of the fluorescence polarisation method can briefly be described as follows:
Monochromatic light passes through a […] polarizing filter and excites fluorescent molecules in the sample. Only those molecules that oriented properly in the vertically polarized plane adsorb light, become excited, and subsequently emit light. The emitted light is measured in both horizontal and vertical planes. The anisotropy value (A), is the ratio between the light intensities following the equation:
A=(Intensity with horizontal polarizer−Intensity with vertical polarizer)/(Intensity with horizontal polarizer+2* Intensity with vertical polarizer).
The fluorescence anisotropy measurements were performed in 384-well microplates in a volume of 10 μL in binding buffer (PBS, 0.01% Tween-20, pH 7.5) using a Tecan Safire fluorescence polarisation plate reader (Tecan, US) at ex646/em678 nm. The concentration of dye-labelled peptide was held constant (20 nM) and the concentrations of the human or mouse cMet/Fc chimera (R&D Systems) or Semaphorin 6A (R&D Systems) were varied from 0-150 nM. Binding mixtures were equilibrated in the microplate for 10 min at 30° C. The observed change in anisotropy was fit to the equation: […]

HCT-15 tumours = assay: In vivo testing in HCT-15 tumour-bearing nude mice, fluorescence imaging through laparoscope; set-up: species or system BALB c/A nude (Bom) mice; conditions: 1 nmol per animal i.v.; excised tumour slice against normal colon
Text: 54 Female BALB c/A nude (Bom) mice were used in the study. The use of the animals was approved by the local ethics committee. BALB c/A nude is an inbred immunocompromised mouse strain with a high take rate for human tumours as compared to other nude mice strains. The mice were 4 weeks old upon arrival and with a body weight of approx. 20 grams at the start of the study. The animals were housed in individually ventilated cages (IVC, Scanbur BK) with HEPA filtered air. The animals had ad libitum access to “Rat and Mouse nr. 3 Breeding” diet (Scanbur BK) and tap water acidified by addition of HCl to a molar concentration of 1 mM (pH 3.0).
The colon cancer cell HCT-15 is derived from human colon carcinomas and is reported to express cMet according to Zeng et al [Clin. Exp. Metastasis, 21, 409-417. (2004)]. The cell line was proven to be tumorigenic when inoculated subcutaneously into nude mice [Flatmark et al, Eur. J. Cancer 40, 1593-1598 (2004)]. […]
Imaging was performed through a clinical laparoscope adapted to use a light source to excite the reporter and a filtering system to extract the fluorescence component. […]
Standard exposure time for colon imaging was 10 s. […] The images were visually scored using the standard scoring system employed for receiver operating characteristic analysis.

T1 sequence (P16056 with tags, fused parts or gaps limits assumed): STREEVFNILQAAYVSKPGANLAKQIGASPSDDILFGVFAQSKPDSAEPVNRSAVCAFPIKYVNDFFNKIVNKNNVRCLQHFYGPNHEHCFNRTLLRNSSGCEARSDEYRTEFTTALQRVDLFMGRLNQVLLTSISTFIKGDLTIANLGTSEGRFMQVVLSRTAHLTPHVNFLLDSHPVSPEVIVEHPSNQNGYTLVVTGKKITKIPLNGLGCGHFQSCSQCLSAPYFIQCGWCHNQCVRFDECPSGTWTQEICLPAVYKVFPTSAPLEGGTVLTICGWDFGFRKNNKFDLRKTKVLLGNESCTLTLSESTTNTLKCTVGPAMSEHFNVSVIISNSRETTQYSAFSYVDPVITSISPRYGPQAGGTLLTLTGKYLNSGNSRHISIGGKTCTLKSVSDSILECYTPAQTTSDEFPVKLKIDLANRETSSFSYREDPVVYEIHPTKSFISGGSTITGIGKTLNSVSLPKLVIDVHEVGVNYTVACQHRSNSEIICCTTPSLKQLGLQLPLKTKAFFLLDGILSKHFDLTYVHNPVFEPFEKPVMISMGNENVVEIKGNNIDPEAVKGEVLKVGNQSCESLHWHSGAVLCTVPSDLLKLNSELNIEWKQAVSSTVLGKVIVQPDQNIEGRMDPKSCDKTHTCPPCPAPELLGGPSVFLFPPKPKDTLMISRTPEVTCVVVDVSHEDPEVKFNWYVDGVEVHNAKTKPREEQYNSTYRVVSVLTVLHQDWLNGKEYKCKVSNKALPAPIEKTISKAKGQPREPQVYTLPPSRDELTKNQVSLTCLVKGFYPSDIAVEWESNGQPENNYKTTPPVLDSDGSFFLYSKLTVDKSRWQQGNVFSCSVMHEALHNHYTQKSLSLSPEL
T1 sequence (P16056 25-306 limits assumed, change not shown): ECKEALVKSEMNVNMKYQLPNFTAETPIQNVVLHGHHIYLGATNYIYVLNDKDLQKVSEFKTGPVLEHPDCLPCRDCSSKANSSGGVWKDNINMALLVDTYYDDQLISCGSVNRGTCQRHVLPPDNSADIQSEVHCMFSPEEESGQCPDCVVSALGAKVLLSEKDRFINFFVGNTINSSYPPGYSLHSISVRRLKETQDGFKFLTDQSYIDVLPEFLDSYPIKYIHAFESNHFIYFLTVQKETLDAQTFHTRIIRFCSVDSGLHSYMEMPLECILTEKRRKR

## Cys4-16, 6-14; Ac-Ala-Gly-Ser-Cys-Tyr-Cys-Ser-Gly-Pro-Pro-Arg-Phe-Glu-Cys-Trp-Cys-Tyr-Glu-Thr-Glu-Gly-Thr-Gly-Gly-Gly-Lys(Cy5)-NH2 (Ac-AGSCYCSGPPRFECWCYETEGTGGGK(Cy5)-NH2; disulfide 6-14, 4-16) [Compound 3]
Mouse cMet/Fc chimera
  binding to mouse cMet: no binding

## Ac-TGECTCPYWEFRPCECGSYSGAGGGK(ϵ-Cy5**)-NH2 (Ac-TGECTCPYWEFRPCECGSYSGAGGGK(Cy5∗∗)-NH2; cysteine pairing not given here; reading uncertain; also: printed as Ac-TGECTCPYWEFRPCECGSYSGAGGGK(ϵ-Cy5**)-NH2) [Compound 7, negative control]
HCT-15 tumours
  tumour to normal ratio: did not discriminate between tumour and background
  visual identification of tumour against background: nothing was discernible against background

From patent US20210046195A1, “FORMULATION AND METHOD OF PREPARATION” (GE HEALTHCARE AS, priority 2018, published 2021)
